# Where “and” joins values, the source holds several entries; their conditions need not be identical. Identical values can stand only once. Like-named read-outs stand apart in the source and are kept apart here.
# How the values were obtained:
# [1] = Human pharmacokinetics, dose-ranging study; format: in vivo
# Protocol: In a dose-ranging study, the pharmacokinetics (PK), safety and tolerability of RX-5902 at various oral doses were evaluated. Subjects with advanced or metastatic solid tumors were administered capsules containing RX-5902 at daily doses of 25-775 mg once weekly, 250-300 mg three times a week, 150-300 mg five times a week, or 300-350 mg seven times a week of RX-5902 for up to 6 dosing cycles. Each cycle consisting of 1-5 doses of RX-5902 per week for 3 weeks followed by 1 week of rest, or 5-7 doses of RX-5902 per week for 4 weeks without any rest per 4-week cycle. All but one subject had fasted from food for at least 8 hours before administration. One subject received 300 mg RX-5902 in fed state. Plasma concentrations were measured on Days 1 and 15, for 48 hrs, using a validated LC-MS/MS assay, and noncompartmental pharmacokinetic parameters were calculated using Phoenix WinNonlin, Version 6.4.
# Preliminary PK data after a single administration is presented in FIG. 1 (for Subjects #1-11) and Table 3.
# [2] = system: pooled human liver microsomes; experiment: RX-5902 metabolism in liver microsomes with CYP450 isozyme-selective chemical inhibitors; format: in vitro ADME
# Protocol: Two in vitro studies were performed to examine the involvement of specific cytochrome P450 (CYP450) isozymes in the in vitro metabolism of RX-5902. In the first study, the loss of RX-5902 was measured after incubation with expressed CYP450 isozymes (1A2, 2A6, 2B6, 2C8, 2C9, 2C19, 2D6, 3A4 and 3A5). […] In the second study, RX-5902 was incubated with pooled human liver microsomes in the presence of CYP450 isozyme-selective chemical inhibitors. The inhibitors tested were selective for 1A2, 2A6, 2B6, 2C8, 2C9, 2C19, 2D6, and 3A4/5.
# [3] = Solid state characterisation of Form 1; format: physicochemical; conditions: crystalline solid
# Excerpt: A batch of RX-5902 was characterized by various solid state techniques. The supplied material was a crystalline solid, denoted as Form 1.
# [4] = oral capsule, 300 mg, 1 per week, Day 1, fasted
# [5] = oral capsule, 300 mg, 5 per week, Day 1, fasted
# [6] = oral capsule, 775 mg, 1 per week, Day 1, fasted
structure (smiles),measurement,setting,value
"COc1cc(OC)cc(N2CCN(C(=O)Nc3nc4cc(F)ccc4nc3OC)CC2)c1 [RX-5902, 4-(3,5-dimethoxyphenyl)-N-(7-fluoro-3-methoxyquinoxalin-2-yl)piperazine-1-carboxamide]",Cmax,"[1]; human, plasma, po, 300 mg, oral capsule, 300 mg, 1 per week, Day 1, fed, read-out: Cmax",779 ng/mL
same,half-life,"[1]; human, plasma, po, 300 mg, oral capsule, 300 mg, 1 per week, Day 1, fed, read-out: T1/2 (converted)",11.9 h
same,Tmax,"[1]; human, plasma, po, 300 mg, oral capsule, 300 mg, 1 per week, Day 1, fed, read-out: Tmax",4 h
same,AUC(0-t),"[1]; human, plasma, po, 300 mg, oral capsule, 300 mg, 3 per week, Day 1, fasted, read-out: AUC0-24",3850 ng·h/mL
same,AUC(0-t),"[1]; human, plasma, po, 300 mg, oral capsule, 300 mg, 3 per week, Day 1, fasted, read-out: AUC0-48",4560 ng·h/mL
same,Cmax,"[1]; human, plasma, po, 300 mg, oral capsule, 300 mg, 3 per week, Day 1, fasted, read-out: Cmax",288 ng/mL
same,half-life,"[1]; human, plasma, po, 300 mg, oral capsule, 300 mg, 3 per week, Day 1, fasted, read-out: T1/2 (converted)",10.3 h
same,Tmax,"[1]; human, plasma, po, 300 mg, oral capsule, 300 mg, 3 per week, Day 1, fasted, read-out: Tmax",6 h
same,AUC(0-t),"[1]; human, plasma, po, 300 mg, oral capsule, 300 mg, 3 per week, Day 15, fasted, read-out: AUC0-24",3050 ng·h/mL
same,AUC(0-t),"[1]; human, plasma, po, 300 mg, oral capsule, 300 mg, 3 per week, Day 15, fasted, read-out: AUC0-48",4140 ng·h/mL
same,Cmax,"[1]; human, plasma, po, 300 mg, oral capsule, 300 mg, 3 per week, Day 15, fasted, read-out: Cmax",301 ng/mL
same,Tmax,"[1]; human, plasma, po, 300 mg, oral capsule, 300 mg, 3 per week, Day 15, fasted, read-out: Tmax",2 h
same,AUC(0-t),"[1]; human, plasma, po, 300 mg, oral capsule, 300 mg, 5 per week, Day 1, fasted, read-out: AUC0-24",3800 ng·h/mL
same,Cmax,"[1]; human, plasma, po, 300 mg, oral capsule, 300 mg, 5 per week, Day 1, fasted, read-out: Cmax",317 ng/mL
same,AUC(0-t),"[1]; human, plasma, po, 300 mg, oral capsule, 300 mg, 5 per week, Day 15, fasted, read-out: AUC0-24",3840 ng·h/mL
same,Tmax,"[1]; human, plasma, po, 300 mg, oral capsule, 300 mg, 5 per week, Day 15, fasted, read-out: Tmax",1.5 h
same,AUC(0-t),"[1]; human, plasma, po, 300 mg, oral capsule, 300 mg, 7 per week, Day 1, fasted, read-out: AUC0-24",2990 ng·h/mL
same,AUC(0-t),"[1]; human, plasma, po, 300 mg, oral capsule, 300 mg, 7 per week, Day 1, fasted, read-out: AUC0-48",3180 ng·h/mL
same,Cmax,"[1]; human, plasma, po, 300 mg, oral capsule, 300 mg, 7 per week, Day 15, fasted, read-out: Cmax",1250 ng/mL
same,Tmax,"[1]; human, plasma, po, 300 mg, oral capsule, 300 mg, 7 per week, Day 15, fasted, read-out: Tmax",6 h
same,AUC(0-t),"[1]; human, plasma, po, 350 mg, oral capsule, 350 mg, 7 per week, Day 1, fasted, read-out: AUC0-24",4820 ng·h/mL
same,AUC(0-t),"[1]; human, plasma, po, 350 mg, oral capsule, 350 mg, 7 per week, Day 1, fasted, read-out: AUC0-48",4960 ng·h/mL
same,Cmax,"[1]; human, plasma, po, 350 mg, oral capsule, 350 mg, 7 per week, Day 1, fasted, read-out: Cmax",750 ng/mL
same,Tmax,"[1]; human, plasma, po, 350 mg, oral capsule, 350 mg, 7 per week, Day 1, fasted, read-out: Tmax",1.5 h
same,AUC(0-t),"[1]; human, plasma, po, 425 mg, oral capsule, 425 mg, 1 per week, Day 1, fasted, read-out: AUC0-24",9320 ng·h/mL
same,AUC(0-t),"[1]; human, plasma, po, 425 mg, oral capsule, 425 mg, 1 per week, Day 1, fasted, read-out: AUC0-48",14700 ng·h/mL
same,Cmax,"[1]; human, plasma, po, 425 mg, oral capsule, 425 mg, 1 per week, Day 1, fasted, read-out: Cmax",660 ng/mL
same,Tmax,"[1]; human, plasma, po, 425 mg, oral capsule, 425 mg, 1 per week, Day 1, fasted, read-out: Tmax",2 h
same,AUC(0-t),"[1]; human, plasma, po, 575 mg, oral capsule, 575 mg, 1 per week, Day 1, fasted, read-out: AUC0-24",6820 ng·h/mL
same,AUC(0-t),"[1]; human, plasma, po, 575 mg, oral capsule, 575 mg, 1 per week, Day 1, fasted, read-out: AUC0-48",10100 ng·h/mL
same,Cmax,"[1]; human, plasma, po, 575 mg, oral capsule, 575 mg, 1 per week, Day 1, fasted, read-out: Cmax",707 ng/mL
same,Tmax,"[1]; human, plasma, po, 575 mg, oral capsule, 575 mg, 1 per week, Day 1, fasted, read-out: Tmax",4 h
same,AUC(0-t),"[1]; human, plasma, po, 775 mg, oral capsule, 775 mg, 1 per week, Day 1, fasted, read-out: AUC0-24",3540 ng·h/mL
same,AUC(0-t),"[1]; human, plasma, po, 775 mg, oral capsule, 775 mg, 1 per week, Day 1, fasted, read-out: AUC0-48",5010 ng·h/mL
same,Cmax,"[1]; human, plasma, po, 775 mg, oral capsule, 775 mg, 1 per week, Day 1, fasted, read-out: Cmax",487 ng/mL
same,half-life,"[1]; human, plasma, po, 775 mg, oral capsule, 775 mg, 1 per week, Day 1, fasted, read-out: T1/2 (converted)",9.7 h
same,Tmax,"[1]; human, plasma, po, oral capsules, all subjects, after dosing, read-out: Tmax, observed range",1 to 6 h
same,half-life,"[1]; human, plasma, po, oral capsules, all subjects, read-out: Apparent terminal T1/2, mean value (converted)",13 h
same,half-life,"[1]; human, plasma, po, oral capsules, all subjects, read-out: Apparent terminal T1/2, range",5.8 to 27.6 h
same,AUC0-24,[1]; [4],4170 ng·h/mL
same,AUC0-48,[1]; [4],5552 ng·h/mL
same,Cmax,[1]; [4],452 ng/mL
same,T1/2,[1]; [4],15.6 h
same,AUC0-24,[1]; [5],4607 ng·h/mL and 3855 ng·h/mL
same,Cmax,[1]; [5],549 ng/mL and 419 ng/mL and 624 ng/mL
same,AUC0-24,"[1]; oral capsule, 300 mg, 5 per week, Day 15, fasted",4878 ng·h/mL
same,AUC0-24,[1]; [6],6925 ng·h/mL
same,AUC0-48,[1]; [6],8126 ng·h/mL
same,Cmax,[1]; [6],654 ng/mL
same,"apparent, short lag time","[1]; oral capsules, sometimes displayed",0.25 h
same,share of AUC0-t (0-48 hours) observed by 24 hours,"[1]; oral capsules, usually",over 75%
same,inhibition of RX-5902 metabolism,[2]; in the presence of a CYP3A4/5-selective inhibitor (ketoconazole),Marked inhibition
same,inhibition of RX-5902 metabolism,"[2]; with inhibitors of the other isozymes (1A2, 2A6, 2B6, 2C8, 2C9, 2C19, 2D6)",no significant inhibition
same,hygroscopicity,[3],non-hygroscopic
same,stability to humidity,[3],stable to exposure to humidity

# Reference: patent publication US9969698B2, “Quinoxalinyl-piperazinamide methods of use” (REXAHN PHARMACEUTICALS, INC., priority 2015, dated 2018)
